Laboratory results from ChEMBL document CHEMBL3407340, “Synthesis, radiolabeling and evaluation of novel 4-oxo-quinoline derivatives as PET tracers for imaging cannabinoid type 2 receptor” (Eur J Med Chem, 2015).

Assays:
Lung [1] = assay: Biodistribution in Wistar rat lung at 5 to 10 MBq, iv after 15 mins by gamma counting analysis; assay type: ADME, organism-based; details: in vivo, 0.25 h
Bone [2] = assay: Biodistribution in Wistar rat bone at 5 to 10 MBq, iv after 15 mins by gamma counting analysis; assay type: ADME, organism-based, Bone element; details: in vivo, 0.25 h
Spleen [3] = assay: Biodistribution in Wistar rat spleen at 5 to 10 MBq, iv after 15 mins by gamma counting analysis in presence of GW405883 relative to control; assay type: ADME, organism-based; details: in vivo, 0.25 h
Brain [4] = assay: Drug uptake in LPS-treated mouse whole brain at 10 to 18 MBq, iv by PET imaging analysis in presence of […]; assay type: ADME, organism-based; details: in vivo
Bone [5] = assay: Biodistribution in Wistar rat bone at 5 to 10 MBq, iv after 15 mins by gamma counting analysis in presence of GW405883; assay type: ADME, organism-based, Bone element; details: in vivo, 0.25 h
Zone of skin [6] = assay: Biodistribution in Wistar rat skin at 5 to 10 MBq, iv after 15 mins by gamma counting analysis in presence of GW405883; assay type: ADME, organism-based; details: in vivo, 0.25 h
Small intestine [7] = assay: Biodistribution in Wistar rat small intestine at 5 to 10 MBq, iv after 15 mins by gamma counting analysis; assay type: ADME, organism-based; details: in vivo, 0.25 h
[8] = Drug uptake in human cervical spinal cord at 0.4 nM after 15 mins by autoradiography; assay type: ADME, tissue-based; details: 0.25 h, 0.0004 µM
[9] = Partition coefficient, log D of the compound in n-octanol/phosphate buffer at pH 7.4 after 15 mins by shake flask method; assay type: physicochemical
Rattus norvegicus [10] = assay: Biodistribution in Wistar rat fat at 5 to 10 MBq, iv after 15 mins by gamma counting analysis; assay type: ADME, organism-based, Adipose tissue; details: in vivo, 0.25 h
Blood [11] = assay: Biodistribution in Wistar rat blood at 5 to 10 MBq, iv after 15 mins by gamma counting analysis; assay type: ADME, organism-based; details: in vivo, 0.25 h
Rattus norvegicus [12] = assay: Biodistribution in Wistar rat testis at 5 to 10 MBq, iv after 15 mins by gamma counting analysis; assay type: ADME, organism-based; details: in vivo, 0.25 h
[13] = Drug uptake in human lumbar spinal cord at 0.4 nM after 15 mins by autoradiography; assay type: ADME, tissue-based; details: 0.25 h, 0.0004 µM
Hippocampus [14] = assay: Drug uptake in LPS-treated mouse hippocampus at 10 to 18 MBq, iv by PET imaging analysis; assay type: ADME, organism-based; details: in vivo
Rattus norvegicus [15] = assay: Biodistribution in Wistar rat thyroid gland at 5 to 10 MBq, iv after 15 mins by gamma counting analysis in presence of GW405883; assay type: ADME, organism-based; details: in vivo, 0.25 h
Heart [16] = assay: Biodistribution in Wistar rat heart at 5 to 10 MBq, iv after 15 mins by gamma counting analysis; assay type: ADME, organism-based; details: in vivo, 0.25 h
Lung [17] = assay: Biodistribution in Wistar rat lung at 5 to 10 MBq, iv after 15 mins by gamma counting analysis in presence of GW405883; assay type: ADME, organism-based; details: in vivo, 0.25 h
Adrenal gland [18] = assay: Biodistribution in Wistar rat adrenal gland at 5 to 10 MBq, iv after 15 mins by gamma counting analysis; assay type: ADME, organism-based; details: in vivo, 0.25 h
Heart [19] = assay: Biodistribution in Wistar rat heart at 5 to 10 MBq, iv after 15 mins by gamma counting analysis in presence of GW405883; assay type: ADME, organism-based; details: in vivo, 0.25 h
[20] = Biodistribution in Wistar rat urine at 5 to 10 MBq, iv after 15 mins by gamma counting analysis in presence of GW405883; assay type: ADME, organism-based; details: in vivo, 0.25 h
[21] = Biodistribution in Wistar rat urine at 5 to 10 MBq, iv after 15 mins by gamma counting analysis; assay type: ADME, organism-based; details: in vivo, 0.25 h
Pancreas [22] = assay: Biodistribution in Wistar rat pancreas at 5 to 10 MBq, iv after 15 mins by gamma counting analysis in presence of GW405883; assay type: ADME, organism-based; details: in vivo, 0.25 h
Rattus norvegicus [23] = assay: Biodistribution in Wistar rat testis at 5 to 10 MBq, iv after 15 mins by gamma counting analysis in presence of GW405883; assay type: ADME, organism-based; details: in vivo, 0.25 h
[24] = Drug metabolism in Wistar rat plasma assessed as parent compound remaining at 115 to 163 MBq, iv after 5 mins; assay type: ADME, organism-based; details: read-out: Stability
Cerebellum [25] = assay: Drug uptake in LPS-treated mouse cerebellum at 10 to 18 MBq, iv by PET imaging analysis; assay type: ADME, organism-based; details: in vivo
[26] = Drug metabolism in Wistar rat plasma assessed as parent compound remaining at 115 to 163 MBq, iv after 10 mins; assay type: ADME, organism-based; details: read-out: Stability
Spleen [27] = assay: Biodistribution in Wistar rat spleen at 5 to 10 MBq, iv after 15 mins by gamma counting analysis; assay type: ADME, organism-based; details: in vivo, 0.25 h
Adrenal gland [28] = assay: Biodistribution in Wistar rat adrenal gland at 5 to 10 MBq, iv after 15 mins by gamma counting analysis in presence of GW405883; assay type: ADME, organism-based; details: in vivo, 0.25 h
Pancreas [29] = assay: Biodistribution in Wistar rat pancreas at 5 to 10 MBq, iv after 15 mins by gamma counting analysis; assay type: ADME, organism-based; details: in vivo, 0.25 h
Brain [30] = assay: Biodistribution in Wistar rat brain at 5 to 10 MBq, iv after 15 mins by gamma counting analysis; assay type: ADME, organism-based; details: in vivo, 0.25 h
[31] = Drug metabolism in Wistar rat plasma assessed as parent compound remaining at 115 to 163 MBq, iv after 20 mins; assay type: ADME, organism-based; details: read-out: Stability
Cortex [32] = assay: Drug uptake in LPS-treated mouse cortex at 10 to 18 MBq, iv by PET imaging analysis in presence of […]; assay type: ADME, organism-based; details: in vivo
Liver [33] = assay: Biodistribution in Wistar rat liver at 5 to 10 MBq, iv after 15 mins by gamma counting analysis in presence of GW405883; assay type: ADME, organism-based; details: in vivo, 0.25 h
Brain [34] = assay: Drug uptake in LPS-treated mouse whole brain at 10 to 18 MBq, iv by PET imaging analysis; assay type: ADME, organism-based; details: in vivo
Rattus norvegicus [35] = assay: Biodistribution in Wistar rat thyroid gland at 5 to 10 MBq, iv after 15 mins by gamma counting analysis; assay type: ADME, organism-based; details: in vivo, 0.25 h
Rattus norvegicus [36] = assay: Biodistribution in Wistar rat fat at 5 to 10 MBq, iv after 15 mins by gamma counting analysis in presence of GW405883; assay type: ADME, organism-based, Adipose tissue; details: in vivo, 0.25 h
Small intestine [37] = assay: Biodistribution in Wistar rat small intestine at 5 to 10 MBq, iv after 15 mins by gamma counting analysis in presence of GW405883; assay type: ADME, organism-based; details: in vivo, 0.25 h
Plasma [38] = assay: Stability in human plasma after 40 mins; assay type: ADME, cell-free
Zone of skin [39] = assay: Biodistribution in Wistar rat skin at 5 to 10 MBq, iv after 15 mins by gamma counting analysis; assay type: ADME, organism-based; details: in vivo, 0.25 h
Muscle tissue [40] = assay: Biodistribution in Wistar rat muscle at 5 to 10 MBq, iv after 15 mins by gamma counting analysis; assay type: ADME, organism-based; details: in vivo, 0.25 h
Plasma [41] = assay: Stability in rat plasma after 40 mins; assay type: ADME, cell-free
Brain [42] = assay: Biodistribution in Wistar rat brain at 5 to 10 MBq, iv after 15 mins by gamma counting analysis in presence of GW405883; assay type: ADME, organism-based; details: in vivo, 0.25 h
Muscle tissue [43] = assay: Biodistribution in Wistar rat muscle at 5 to 10 MBq, iv after 15 mins by gamma counting analysis in presence of GW405883; assay type: ADME, organism-based; details: in vivo, 0.25 h
Kidney [44] = assay: Biodistribution in Wistar rat kidneys at 5 to 10 MBq, iv after 15 mins by gamma counting analysis; assay type: ADME, organism-based; details: in vivo, 0.25 h
Brain [45] = assay: Drug uptake in LPS-treated mouse brain at 0.2 nM, iv after 5 days by PET imaging analysis in presence of GW405883 relative to control; assay type: ADME, organism-based; details: in vivo, 120 h, 0.0002 µM
Kidney [46] = assay: Biodistribution in Wistar rat kidneys at 5 to 10 MBq, iv after 15 mins by gamma counting analysis in presence of GW405883; assay type: ADME, organism-based; details: in vivo, 0.25 h
Plasma [47] = assay: Stability in mouse plasma after 40 mins; assay type: ADME, cell-free
Brain [48] = assay: Drug uptake in LPS-treated mouse brain at 0.2 nM, iv after 5 days by PET imaging analysis relative to vehicle-treated control; assay type: ADME, organism-based; details: in vivo, 120 h, 0.0002 µM
Cortex [49] = assay: Drug uptake in LPS-treated mouse cortex at 10 to 18 MBq, iv by PET imaging analysis; assay type: ADME, organism-based; details: in vivo
Cerebellum [50] = assay: Drug uptake in LPS-treated mouse cerebellum at 10 to 18 MBq, iv by PET imaging analysis in presence of GW405883; assay type: ADME, organism-based; details: in vivo
[51] = Drug metabolism in Wistar rat spleen assessed as parent compound remaining at 115 to 163 MBq, iv after 20 mins; assay type: ADME, organism-based; details: read-out: Stability
Spleen [52] = assay: Biodistribution in Wistar rat spleen at 5 to 10 MBq, iv after 15 mins by gamma counting analysis in presence of GW405883; assay type: ADME, organism-based; details: in vivo, 0.25 h
Blood [53] = assay: Biodistribution in Wistar rat blood at 5 to 10 MBq, iv after 15 mins by gamma counting analysis in presence of GW405883; assay type: ADME, organism-based; details: in vivo, 0.25 h
Liver [54] = assay: Biodistribution in Wistar rat liver at 5 to 10 MBq, iv after 15 mins by gamma counting analysis; assay type: ADME, organism-based; details: in vivo, 0.25 h
Hippocampus [55] = assay: Drug uptake in LPS-treated mouse hippocampus at 10 to 18 MBq, iv by PET imaging analysis in presence of […]; assay type: ADME, organism-based; details: in vivo

## CCOCCn1cc(C(=O)NC23CC4CC(CC(C4)C2)C3)c(=O)c2cccc(O[11CH3])c21
Lung [1]
  Drug uptake: 0.088 % ID/g
Bone [2]
  Drug uptake: 0.046 % ID/g
Spleen [3]
  Drug uptake: 78%
Brain [4]
  Drug uptake: Not Active
Bone [5]
  Drug uptake: 0.039 % ID/g
Zone of skin [6]
  Drug uptake: 0.057 % ID/g
Small intestine [7]
  Drug uptake: 0.924 % ID/g
[8]
  Drug uptake: Active
[9]
  logD at 0.25 h: 2.78
Rattus norvegicus [10]
  Drug uptake: 0.05 % ID/g
Blood [11]
  Drug uptake: 0.044 % ID/g
Rattus norvegicus [12]
  Drug uptake: 0.033 % ID/g
[13]
  Drug uptake: Active
Hippocampus [14]
  Drug uptake: Active
Rattus norvegicus [15]
  Drug uptake: 0.064 % ID/g
Heart [16]
  Drug uptake: 0.08 % ID/g
Lung [17]
  Drug uptake: 0.075 % ID/g
Adrenal gland [18]
  Drug uptake: 0.216 % ID/g
Heart [19]
  Drug uptake: 0.091 % ID/g
[20]
  Drug uptake: 0.08 % ID/g
[21]
  Drug uptake: 0.06 % ID/g
Pancreas [22]
  Drug uptake: 0.113 % ID/g
Rattus norvegicus [23]
  Drug uptake: 0.034 % ID/g
[24]
  remaining at 5 min: 72%
Cerebellum [25]
  Drug uptake: Active
[26]
  remaining at 10 min: 55%
Spleen [27]
  Drug uptake: 0.284 % ID/g
Adrenal gland [28]
  Drug uptake: 0.262 % ID/g
Pancreas [29]
  Drug uptake: 0.11 % ID/g
Brain [30]
  Drug uptake: 0.025 % ID/g
[31]
  remaining at 20 min: 47%
Cortex [32]
  Drug uptake: Not Active
Liver [33]
  Drug uptake: 0.38 % ID/g
Brain [34]
  Drug uptake: Active
Rattus norvegicus [35]
  Drug uptake: 0.077 % ID/g
Rattus norvegicus [36]
  Drug uptake: 0.053 % ID/g
Small intestine [37]
  Drug uptake: 0.425 % ID/g
Plasma [38]
  Stability: Stable
Zone of skin [39]
  Drug uptake: 0.05 % ID/g
Muscle tissue [40]
  Drug uptake: 0.065 % ID/g
Plasma [41]
  Stability: Stable
Brain [42]
  Drug uptake: 0.028 % ID/g
Muscle tissue [43]
  Drug uptake: 0.071 % ID/g
Kidney [44]
  Drug uptake: 0.122 % ID/g
Brain [45]
  Drug uptake: Not Active
Kidney [46]
  Drug uptake: 0.134 % ID/g
Plasma [47]
  Stability: Stable
Brain [48]
  Drug uptake: Active
Cortex [49]
  Drug uptake: Active
Cerebellum [50]
  Drug uptake: Not Active
[51]
  remaining at 20 min: 81%
Spleen [52]
  Drug uptake: 0.062 % ID/g
Blood [53]
  Drug uptake: 0.03 % ID/g
Liver [54]
  Drug uptake: 0.505 % ID/g
Hippocampus [55]
  Drug uptake: Not Active
